# Reference: US7855292B2, “Sulfonamide compounds” (Janssen Pharmaceutica NV, priority 2004, dated 2010)
# Experiments:
# [1] = biological target: T1, CCK-1 receptor (Homo sapiens, UniProt P32238); assay: CCK1 binding assay ([125I]-BH-CCK-8S displacement, CHO-K1 membranes); conditions: membranes of CHO-K1 cells stably transfected with the CCK-1 receptor, 20 pM [125I]-BH-CCK-8S, 0.3 μM PD-134,308 present, 60 min at 21±3° C.; for Ki: read-out: CCK1 pKi (converted)
# T1 construct: expressed in transfected cells; host or cells: CHO-K1
# T1 sequence (P32238 1-428): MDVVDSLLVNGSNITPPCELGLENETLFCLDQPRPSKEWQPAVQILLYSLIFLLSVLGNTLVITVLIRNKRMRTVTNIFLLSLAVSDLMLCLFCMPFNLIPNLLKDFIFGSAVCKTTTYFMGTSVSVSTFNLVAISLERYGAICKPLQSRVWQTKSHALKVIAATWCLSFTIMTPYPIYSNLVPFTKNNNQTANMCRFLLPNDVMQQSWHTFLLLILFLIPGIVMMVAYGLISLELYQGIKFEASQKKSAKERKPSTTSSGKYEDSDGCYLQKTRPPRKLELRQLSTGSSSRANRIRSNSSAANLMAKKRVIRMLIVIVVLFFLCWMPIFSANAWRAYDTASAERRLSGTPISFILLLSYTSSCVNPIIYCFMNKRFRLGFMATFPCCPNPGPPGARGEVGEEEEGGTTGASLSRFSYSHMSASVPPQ
# Method: 1. CCK1 Assay Development and Data Generation
# CHO-K1 cells that had undergone stable transfection with the CCK-1 receptor were grown in DMEM supplemented with L-glutamine (2 mM), penicillin (50 units/mL) and streptomycin (50 μg/mL). Cells were cultured under continuous G418 selection (2 mM) and were harvested using a rubber cell scraper. CHO-K1 cells were sub-cultured a maximum of ten times before being reseeded from the original stocks.
# Membranes were prepared from the stably transfected CHO-K1 cells. Frozen cell pellets (−40° C.) were thawed in 14 mL of buffer A (10 mM HEPES, 130 mM NaCl, 4.7 mM KCl, 5 mM MgCl, 1 mM EGTA and 15.4 mg/100 mL bacitracin at pH 7.2), adapted from Harper et al. (Br. J. Pharmacol. 1996, 118:1717-1726). The thawed pellets were homogenized using a Polytron PT-10 (7×1 s). The homogenates were centrifuged for 5 min at 1500 rpm (600×g), and the resulting pellets were discarded. The supernatants were re-centrifuged in order to collect the receptor-membrane pellets (25 min 15,000 rpm; 39,800×g), which were re-suspended in buffer A.
# All assays were conducted in 96-well plates (GF/B millipore filter plates) using buffer A, with 0.3 μM PD-134,308, for the dilutions. The CCK-2 receptor ligand was included to eliminate the contribution of this receptor subtype to the binding. For the optimal cell number determination experiments 20 pM [^125I]-BH-CCK-8S (50 μL […] solution) was incubated with a range of cell concentrations ([…] to 12.5×10^5 cells/well) in a total volume of 150 μL. Total binding of [^125I]-BH-CCK-8S was determined in the presence of 15 μL of buffer A. Non-specific binding of [^125I]-BH-CCK-8S was determined in the presence of 15 μL of 100 μM 2-naphthalenesulphonyl L-aspartyl-(2-phenethyl)amide (2-NAP: see R. A. Hull et al. Br. J. Pharmacol. 1993, 108:734-740), a CCK-1 receptor selective antagonist that is structurally unrelated to the radioligand [^125I]-BH-CCK-8S. The assay preparation was incubated for 1 h at 21±3° C., and then the assay was terminated upon rapid filtration of the preparation under reduced pressure. The loaded filters were washed three times using undiluted PBS ([…]), and then the residues were transferred to 5 mL scintillation tubes. Bound radioactivity was determined using a gamma counter (count time=1 min). […] To validate the radioligand concentration and incubation time for the assay, saturation and kinetic binding studies were also conducted (see M. F. Morton, The Pharmacological Characterization of Cholecystokinin Receptors in the Human Gastrointestinal Tract. PhD Thesis, University of London, 2000). […] The assay was then terminated according to the procedure outlined above.
# (§1) 3. Data Analysis for CCK1 and CCK2 Binding Assays
# The pKi values were determined using the equation of Y.-C. Cheng and W. H. Prusoff (Biochem. Pharmacol., 1973, 22(23):3099-3108):
# (§2) [formula] To circumvent problems associated with computer-assisted data analysis of compounds with low affinity, the data obtained in the current study were weighted according to a method described by Morton. In brief, 100% and 0% specific binding were defined independently using total binding and binding obtained in the presence of a high concentration of the reference antagonist, 2-NAP.
# [2] = biological target: T2, CCK2 receptor (Homo sapiens, UniProt P32239); assay: CCK2 binding assay ([125I]-BH-CCK-8S displacement, HEKZFP membranes); conditions: membranes of doxycycline-induced HEKZFP cells, 20 pM [125I]-BH-CCK-8S, 60 min at 21±3° C.; for Ki: read-out: CCK2 pKi (converted)
# T2 construct: analyzed for ZFP expression as well as CCK2R induction upon addition of doxycycline to the culture medium; endogenous in cells
# T2 sequence (P32239 1-447): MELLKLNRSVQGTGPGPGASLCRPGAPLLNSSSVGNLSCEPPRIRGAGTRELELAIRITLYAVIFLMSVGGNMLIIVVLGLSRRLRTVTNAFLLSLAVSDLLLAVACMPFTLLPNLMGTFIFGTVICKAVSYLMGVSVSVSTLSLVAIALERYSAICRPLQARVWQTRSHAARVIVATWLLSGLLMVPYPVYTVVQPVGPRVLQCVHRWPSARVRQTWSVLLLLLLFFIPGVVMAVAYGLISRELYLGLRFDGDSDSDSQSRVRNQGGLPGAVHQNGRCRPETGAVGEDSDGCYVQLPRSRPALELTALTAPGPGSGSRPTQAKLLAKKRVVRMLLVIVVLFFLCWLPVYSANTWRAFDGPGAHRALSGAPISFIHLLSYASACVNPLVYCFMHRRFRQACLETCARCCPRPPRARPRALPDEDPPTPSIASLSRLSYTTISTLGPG
# Method: 2. CCK2 Assay Development and Data Generation
# Zinc Finger Proteins (ZFP) specific for the CCK2R gene were identified by Sangamo Biosciences. The ZFP domain was fused with the herpes simplex virus VP16 activation domain, and the fusion protein was subsequently cloned into the pcDNA3 mammalian expression vector (Invitrogen, San Diego, Calif.). […] After 2 weeks of selection in culture medium containing […] Zeocin (Invitrogen), sixty drug-resistant stable clones were isolated and analyzed for ZFP expression as well as CCK2R induction upon addition of doxycycline to the culture medium.
# HEKZFP cells were grown in DMEM supplemented with L-glutamine (2 mM), penicillin (50 units/mL) and streptomycin (50 μg/mL) and 10% FBS (v/v).
# Membranes were prepared from the HEKZFP cells after induction. […] The thawed pellets were homogenized using a Polytron PT-10 (7×1 s). The homogenates were centrifuged for 5 min at 1500 rpm (600×g), and the resulting pellets were discarded. The supernatants were re-centrifuged in order to collect the receptor-membrane pellets (25 min 15,000 rpm; 39,800×g), which were re-suspended in buffer A.
# The assay preparation was incubated for 1 h at 21±3° C., and then the assay was terminated by rapid filtration of the preparation under reduced pressure. The loaded filters were washed three times using undiluted PBS (100 μL), and then 100 μL of scintillation fluid was added to the filter plate. Bound radioactivity was determined using a Topcount (Packard BioScience, Meriden, Conn.) with a count time of 1 min. […] To validate the radioligand concentration and incubation time for the assay, saturation and kinetic binding studies were also conducted (see M. F. Morton, The Pharmacological Characterization of Cholecystokinin Receptors in the Human Gastrointestinal Tract. PhD Thesis, University of London, 2000). […] The assay was then terminated according to the procedure outlined above.
# as §1
# The pKi values were determined using the equation of Y.-C.
# as §2
CCK1 pKi [1],CCK2 pKi [2],Ki [1] [nM],Ki [2] [nM],SMILES
6.7,6.6,–,–,"COC(=O)[C@H](Cc1ccc(F)c(Br)c1)NC(=O)c1cc(Cl)c(Cl)cc1NS(=O)(=O)c1cccc2nccnc12 [Example 153, (S)-3-(3-Bromo-4-fluoro-phenyl)-2-[4,5-dichloro-2-(quinoxaline-5-sulfonylamino)-benzoylamino]-propionic acid methyl ester]"
6.9,7.9,–,–,"O=C(N[C@@H](Cc1ccc(Cl)c(Br)c1)C(=O)O)c1ccc(Br)cc1NS(=O)(=O)c1cccc2nsnc12 [Example 161, (S)-2-[2-(Benzo[1,2,5]thiadiazole-4-sulfonylamino)-4-bromo-benzoylamino]-3-(3-bromo-4-chloro-phenyl)-propionic acid]"
–,–,79.4,631,"O=C(N[C@@H](Cc1ccc(Cl)c(Cl)c1)C(=O)Nc1ccccc1)c1ccc(Cl)cc1NS(=O)(=O)c1cccc2nsnc12 [Example 139, (S)-2-(Benzo[1,2,5]thiadiazole-4-sulfonylamino)-4-chloro-N-[2-(3,4-dichloro-phenyl)-phenylcarbamoyl-ethyl]-benzamide]"
–,–,39.8,794,"C[C@@H](NC(=O)c1ccc(I)cc1NS(=O)(=O)c1cccc2nsnc12)[C@@H](O)c1cccc(Br)c1 [Example 101, 2-(Benzo[1,2,5]thiadiazole-4-sulfonylamino)-N-[(2S,1R)-2-(3-bromo-phenyl)-2-hydroxy-1-methyl-ethyl]-4-iodo-benzamide]"
–,–,251,1580,"CC(CNC(=O)c1ccc(Cl)cc1NS(=O)(=O)c1c(F)cccc1F)c1ccc(C(F)(F)F)cc1 (stereo not drawn) [Example 45, 4-Chloro-2-(2,6-difluoro-benzenesulfonylamino)-N-[2-(4-trifluoromethyl-phenyl)-propyl]-benzamide]"
–,–,100,3980,"CC(CNC(=O)c1ccc(Cl)cc1NS(=O)(=O)c1c(F)cccc1F)c1ccc([N+](=O)[O-])cc1 (stereo not drawn) [Example 44, 4-Chloro-2-(2,6-difluoro-benzenesulfonylamino)-N-[2-(4-nitro-phenyl)-propyl]-benzamide]"
–,–,6310,631,"COC(=O)C[C@H](Cc1ccc(Cl)cc1)NC(=O)c1ccc(Cl)cc1NS(=O)(=O)c1cccc2nccnc12 [Example 88, (S)-4-(4-Chloro-phenyl)-3-[4-chloro-2-(quinoxaline-5-sulfonylamino)-benzoylamino]-butyric acid methyl ester]"
–,–,126,398,"CCOC(=O)[C@H](Cc1ccc(F)c(Br)c1)NC(=O)c1cc(Cl)c(Cl)cc1NS(=O)(=O)c1cccc2nsnc12 [Example 163, (S)-2-[2-(Benzo[1,2,5]thiadiazole-4-sulfonylamino)-4,5-dichloro-benzoylamino]-3-(3-bromo-4-fluoro-phenyl)-propionic acid ethyl ester]"
–,–,20,7940,"CC(CNC(=O)c1ccc(Cl)cc1NS(=O)(=O)c1ccc(F)cc1F)c1ccc(Cl)c(Cl)c1 (racemic) [Example 10, (±)-4-Chloro-N-[2-(3,4-dichloro-phenyl)-propyl]-2-(2,4-difluorobenzenesulfonylamino)-benzamide]"
–,–,2000,100,"CN(CCc1ccccc1)C(=O)c1ccc(Br)cc1NS(=O)(=O)c1cccc2nsnc12 [Example 20, 2-(Benzo[1,2,5]thiadiazole-4-sulfonylamino)-4-bromo-N-methyl-N-phenethyl-benzamide]"
–,–,3160,501,"COC(=O)[C@H](Cc1ccc(Br)s1)NC(=O)c1ccc(Cl)cc1NS(=O)(=O)c1cccc2nccnc12 [Example 8, (S)-3-(5-Bromo-thiophen-2-yl)-2-[4-chloro-2-(quinoxaline-5-sulfonylamino)-benzoylamino]-propionic acid methyl ester]"
–,–,501,7.94,"O=C(N[C@@H](Cc1cccc(I)c1)C(=O)O)c1ccc(I)cc1NS(=O)(=O)c1cccc2nsnc12 [Example 135, (S)-2-[2-(Benzo[1,2,5]thiadiazole-4-sulfonylamino)-4-iodo-benzoylamino]-3-(3-iodo-phenyl)-propionic acid]"
–,–,126,501,"O=C(N[C@@H](C(=O)O)[C@@H](O)c1ccc(Cl)c(Cl)c1)c1ccc(Cl)cc1NS(=O)(=O)c1cccc2nsnc12 (relative stereo) [Example 121, anti-2-[2-(Benzo[1,2,5]thiadiazole-4-sulfonylamino)-4-chloro-benzoylamino]-3-(3,4-dichloro-phenyl)-3-hydroxy-propionic acid]"
6.6,–,–,–,"O=C(N[C@@H](Cc1ccc(Cl)c(Cl)c1)C(=O)O)c1ccc(Cl)cc1NS(=O)(=O)c1cccc2nsnc12 [Example 117, (S)-2-[2-(Benzo[1,2,5]thiadiazole-4-sulfonylamino)-4-chloro-benzoylamino]-3-(3,4-dichloro-phenyl)-propionic acid]"
